In ChEMBL document CHEMBL1914343, “Recent progress in synthesis and bioactivity studies of indolizines” (Eur J Med Chem, 2011):
Converted amounts (≈) assume the structure as drawn. The source made the active and inactive calls. No cut-off for these calls is given here.

Legend:
Escherichia coli = test: Antibacterial activity against Escherichia coli at 100 ug/mL; format: functional, organism-based
Streptomyces albus = test: Antibacterial activity against Streptomyces albus at 100 ug/mL; format: functional, organism-based
Aspergillus flavus = test: Antifungal activity against Aspergillus flavus at 100 ug/mL; format: functional, organism-based
Candida albicans = test: Antifungal activity against Candida albicans at 100 ug/mL; format: functional, organism-based
[1] = test system: Mycobacterium tuberculosis; test: Antimycobacterial activity against Mycobacterium tuberculosis H37Rv by agar diffusion method; format: functional
[2] = Inhibition of soybean arachidonate 15-lipoxygenase; design: species or system Glycine max
[3] = target: T1, Polyunsaturated fatty acid lipoxygenase ALOX15 (Oryctolagus cuniculus, UniProt P12530); test: Inhibition of rabbit reticulocytes arachidonate 15-lipoxygenase
T1 sequence (P12530 whole entry): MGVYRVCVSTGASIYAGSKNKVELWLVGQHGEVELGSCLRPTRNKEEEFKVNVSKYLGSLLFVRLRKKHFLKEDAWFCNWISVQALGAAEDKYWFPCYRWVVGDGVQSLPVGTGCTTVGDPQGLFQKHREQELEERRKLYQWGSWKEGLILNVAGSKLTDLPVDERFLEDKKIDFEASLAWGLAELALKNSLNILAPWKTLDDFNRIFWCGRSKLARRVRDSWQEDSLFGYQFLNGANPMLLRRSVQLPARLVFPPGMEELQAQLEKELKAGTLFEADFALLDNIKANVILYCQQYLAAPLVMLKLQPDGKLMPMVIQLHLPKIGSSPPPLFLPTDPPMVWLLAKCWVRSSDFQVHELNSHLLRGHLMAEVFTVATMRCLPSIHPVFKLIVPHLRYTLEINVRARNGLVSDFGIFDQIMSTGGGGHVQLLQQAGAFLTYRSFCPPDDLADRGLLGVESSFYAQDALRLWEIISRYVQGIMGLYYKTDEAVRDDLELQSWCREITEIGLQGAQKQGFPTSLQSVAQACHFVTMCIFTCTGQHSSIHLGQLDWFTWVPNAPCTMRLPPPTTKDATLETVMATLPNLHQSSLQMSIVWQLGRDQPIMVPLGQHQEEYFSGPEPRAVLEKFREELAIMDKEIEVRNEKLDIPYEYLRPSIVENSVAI

[4] = test system: Mycobacterium tuberculosis; test: Antimycobacterial activity against Mycobacterium tuberculosis H37Rv ATCC 27294 at 6.25 ug/mL by microplate alamar blue assay; format: functional
[5] = test system: Mycobacterium tuberculosis; test: Antimycobacterial activity against Mycobacterium tuberculosis H37Rv ATCC 27294 by microplate alamar blue assay; format: functional
Plasmodium falciparum = test: Antiplasmodial activity against Plasmodium falciparum; format: functional
Leishmania donovani = test: Antileishmanial activity against Leishmania donovani; format: functional
Trypanosoma cruzi = test: Antitrypanosomal activity against Trypanosoma cruzi; format: functional
[6] = test system: Trypanosoma brucei rhodesiense; test: Antitrypanosomal activity against Trypanosoma brucei rhodesiense; format: functional
Pichia kudriavzevii = test: Antifungal activity against Candida krusei at 32 ug/mL; format: functional, organism-based
[7] = Antioxidant activity assessed as inhibition of lipid peroxidation after 30 mins; format: functional
Substance-P receptor = Substance-P receptor (Homo sapiens, UniProt P25103); test: Antagonist activity at human NK1 receptor expressed in CHO cells assessed as inhibition of SP-induced intracellular Ca2+ increase by Fura-2 assay; format: functional, cell-based; conditions: read-out: pA2 (converted)
Substance-K receptor = target: T2, Substance-K receptor (Homo sapiens, UniProt P21452); test: Antagonist activity at human NK2 receptor expressed in CHO cells assessed as inhibition of Neurokinin A-induced increase in intracellular Ca2+ increase by Fura-2 assay; format: functional, cell-based; conditions: read-out: pA2 (converted)
T2 sequence (P21452 whole entry): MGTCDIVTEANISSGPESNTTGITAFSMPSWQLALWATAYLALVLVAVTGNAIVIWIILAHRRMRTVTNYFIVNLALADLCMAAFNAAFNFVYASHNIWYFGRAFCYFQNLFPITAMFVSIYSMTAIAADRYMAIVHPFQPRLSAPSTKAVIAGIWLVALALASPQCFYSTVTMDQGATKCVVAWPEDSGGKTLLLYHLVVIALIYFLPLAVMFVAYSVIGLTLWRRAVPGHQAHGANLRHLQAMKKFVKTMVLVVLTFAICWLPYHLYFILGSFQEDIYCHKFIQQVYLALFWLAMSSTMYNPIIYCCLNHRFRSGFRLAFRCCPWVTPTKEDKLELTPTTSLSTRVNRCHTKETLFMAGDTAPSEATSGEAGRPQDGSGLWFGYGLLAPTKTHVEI

Mus musculus [8] = test: Antiinflammatory activity in […] mouse assessed as inhibition of carrageenan-induced edema after 2 hrs relative to control; format: functional
[9] = Apparent permeability across human Caco2 cells; format: ADME, cell-based; conditions: Caco-2
Histamine H3 receptor [10] = target: Histamine H3 receptor (Homo sapiens, UniProt Q9Y5N1); test: Antagonist activity at human histamine H3 receptor expressed in […] cells; format: functional, cell-based, SK-N-MC; conditions: read-out: pA2 (converted)
Histamine H3 receptor [11] = target: Histamine H3 receptor (Rattus norvegicus, UniProt Q9QYN8); test: Antagonist activity at rat histamine H3 receptor expressed in […] cells; format: functional, cell-based, SK-N-MC; conditions: read-out: pA2 (converted)
Albumin = Albumin (Homo sapiens, UniProt P02768); test: Binding affinity to human serum albumin; format: ADME; conditions: isolated protein
[12] = Half life in human liver microsomes; format: ADME, Microsome
Mus musculus [13] = test: Antiinflammatory activity in […] mouse assessed as inhibition of carrageenan-induced edema after 3 hrs relative to control; format: functional
[14] = test system: Mycobacterium tuberculosis; test: Ratio MIC for ethambutol to compound for Mycobacterium tuberculosis H37Rv by agar diffusion method; format: functional
[15] = test system: Mycobacterium tuberculosis; test: Ratio MIC for ciprofloxacin to compound for Mycobacterium tuberculosis H37Rv by agar diffusion method; format: functional
Estrogen receptor = target: T3, Estrogen receptor (Homo sapiens, UniProt P03372)
T3 sequence (P03372 whole entry): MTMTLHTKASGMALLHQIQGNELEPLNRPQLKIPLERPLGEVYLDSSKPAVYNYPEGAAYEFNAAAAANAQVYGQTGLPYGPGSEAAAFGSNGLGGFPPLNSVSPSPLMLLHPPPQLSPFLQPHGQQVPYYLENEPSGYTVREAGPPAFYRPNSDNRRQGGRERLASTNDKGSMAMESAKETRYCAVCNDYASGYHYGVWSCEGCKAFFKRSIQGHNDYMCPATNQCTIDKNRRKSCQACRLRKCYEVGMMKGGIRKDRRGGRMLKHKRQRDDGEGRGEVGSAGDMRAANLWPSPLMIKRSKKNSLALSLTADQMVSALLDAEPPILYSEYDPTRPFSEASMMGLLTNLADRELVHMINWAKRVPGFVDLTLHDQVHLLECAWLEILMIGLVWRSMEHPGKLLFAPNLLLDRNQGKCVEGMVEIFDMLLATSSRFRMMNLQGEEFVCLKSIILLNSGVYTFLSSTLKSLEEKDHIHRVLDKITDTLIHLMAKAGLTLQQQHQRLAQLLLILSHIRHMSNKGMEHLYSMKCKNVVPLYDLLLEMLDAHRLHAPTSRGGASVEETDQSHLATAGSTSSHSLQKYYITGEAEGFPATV
Description: Agonist activity at estrogen receptor

Sequence of Substance-P receptor (P25103 whole entry): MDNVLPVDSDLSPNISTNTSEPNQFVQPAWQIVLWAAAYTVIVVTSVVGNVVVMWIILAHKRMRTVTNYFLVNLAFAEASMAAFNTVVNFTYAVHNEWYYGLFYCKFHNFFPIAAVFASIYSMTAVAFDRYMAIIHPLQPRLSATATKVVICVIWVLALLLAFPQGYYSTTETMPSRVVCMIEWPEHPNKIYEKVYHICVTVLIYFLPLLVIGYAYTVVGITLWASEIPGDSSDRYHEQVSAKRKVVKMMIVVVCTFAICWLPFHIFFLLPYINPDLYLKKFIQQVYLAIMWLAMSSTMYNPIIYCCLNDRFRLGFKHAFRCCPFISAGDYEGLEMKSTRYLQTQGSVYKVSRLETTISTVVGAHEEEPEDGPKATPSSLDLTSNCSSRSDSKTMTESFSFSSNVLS
Sequence of Histamine H3 receptor (Homo sapiens, UniProt Q9Y5N1) (Q9Y5N1 whole entry): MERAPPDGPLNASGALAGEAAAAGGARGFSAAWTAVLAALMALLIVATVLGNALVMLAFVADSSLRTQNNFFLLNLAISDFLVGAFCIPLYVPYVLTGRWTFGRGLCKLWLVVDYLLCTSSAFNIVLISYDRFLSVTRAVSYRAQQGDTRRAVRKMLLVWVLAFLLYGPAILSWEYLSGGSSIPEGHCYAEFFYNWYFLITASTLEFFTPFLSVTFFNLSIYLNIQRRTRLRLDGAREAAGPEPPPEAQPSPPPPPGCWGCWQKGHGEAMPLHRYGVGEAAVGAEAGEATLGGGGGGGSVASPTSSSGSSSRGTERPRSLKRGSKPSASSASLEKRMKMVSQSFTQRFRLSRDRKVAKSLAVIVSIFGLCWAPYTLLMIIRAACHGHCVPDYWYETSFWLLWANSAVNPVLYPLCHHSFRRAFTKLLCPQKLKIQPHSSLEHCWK
Sequence of Albumin (P02768 whole entry): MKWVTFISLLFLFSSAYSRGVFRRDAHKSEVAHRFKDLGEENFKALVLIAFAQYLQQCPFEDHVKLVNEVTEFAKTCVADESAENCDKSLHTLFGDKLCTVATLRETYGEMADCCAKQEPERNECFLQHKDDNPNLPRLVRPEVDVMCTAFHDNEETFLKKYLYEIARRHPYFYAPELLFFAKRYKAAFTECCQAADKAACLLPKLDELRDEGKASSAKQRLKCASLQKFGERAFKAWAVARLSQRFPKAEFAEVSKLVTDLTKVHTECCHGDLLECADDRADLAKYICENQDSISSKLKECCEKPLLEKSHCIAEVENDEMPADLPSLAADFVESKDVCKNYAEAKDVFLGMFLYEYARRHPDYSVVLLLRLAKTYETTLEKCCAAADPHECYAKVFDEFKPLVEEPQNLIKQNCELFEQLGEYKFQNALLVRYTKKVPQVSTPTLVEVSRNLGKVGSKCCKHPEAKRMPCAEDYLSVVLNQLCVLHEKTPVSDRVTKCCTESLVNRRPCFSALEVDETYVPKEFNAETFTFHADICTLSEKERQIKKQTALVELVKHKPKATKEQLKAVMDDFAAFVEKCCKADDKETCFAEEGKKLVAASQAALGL
Sequence of Histamine H3 receptor (Rattus norvegicus, UniProt Q9QYN8) (Q9QYN8 whole entry): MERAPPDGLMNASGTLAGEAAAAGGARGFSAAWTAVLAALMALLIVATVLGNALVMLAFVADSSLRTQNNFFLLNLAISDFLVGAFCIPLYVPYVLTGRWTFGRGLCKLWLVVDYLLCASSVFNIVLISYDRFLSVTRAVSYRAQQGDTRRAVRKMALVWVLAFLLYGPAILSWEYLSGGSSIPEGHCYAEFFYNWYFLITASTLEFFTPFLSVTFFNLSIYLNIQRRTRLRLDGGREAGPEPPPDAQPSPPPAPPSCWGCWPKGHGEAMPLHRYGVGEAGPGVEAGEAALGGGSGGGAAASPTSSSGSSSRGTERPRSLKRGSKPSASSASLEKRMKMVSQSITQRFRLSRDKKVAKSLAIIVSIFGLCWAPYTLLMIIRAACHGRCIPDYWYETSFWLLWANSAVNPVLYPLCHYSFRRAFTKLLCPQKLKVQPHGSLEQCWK

For `CCOC(=O)C1(C#N)C(c2ccc(Cl)cc2)=C(C(=O)c2cccs2)N2C(C)=CC=CC21` (stereo unspecified), the Activity (Escherichia coli) was “Active”, the Activity (Streptomyces albus) was “Active” and the Activity (Aspergillus flavus) was “inactive”. The Activity (Candida albicans) was “Active”.

Compound `N#Cc1c(-c2ccc(F)cc2)c([N+](=O)[O-])c2c3ccccc3ccn12` has an MIC [1] of 3.9 µM (≈ 1.29 µg/mL).

`N#Cc1ccn2c(-c3ccccc3)c(-c3ccccc3)c(C(O)c3ccccc3)c2c1` (stereo unspecified) showed an IC50 [2] of 35 µM, an IC50 [3] of 48 µM and an inhibition at 6.25 µg/mL [4] of 100%. For the same compound, the MIC [5] was 6.25 µg/mL (≈ 15.6 µM), the MIC (Plasmodium falciparum) was 2.3 µg/mL (≈ 5.74 µM) and the MIC (Leishmania donovani) was 2.3 µg/mL (≈ 5.74 µM). The MIC (Trypanosoma cruzi) was 3.2 µg/mL (≈ 7.99 µM), the MIC [6] was 12 µg/mL (≈ 30 µM) and the Activity (Pichia kudriavzevii) was “inactive”. For the same compound, the IC50 [7] was 35.8 µM.

`COC(=O)C1=C2CCC(C(=O)N[C@@H](CCc3c[nH]c4ccccc34)C(=O)NCc3cc(C(F)(F)F)cc(C(F)(F)F)c3)N2C(=O)C(NC(C)=O)C1` (stereo partly specified) gave a Kb (Substance-P receptor) of 100 nM.

Compound `COC(=O)C1=C2CCC(C(=O)N[C@@H](CCc3c[nH]c4ccccc34)C(=O)N(C)Cc3ccccc3)N2C(=O)C(NC(=O)OCc2ccccc2)C1` (stereo partly specified) has a Kb (Substance-P receptor) of 200 nM and a Kb (Substance-K receptor) of 200 nM.

Compound `N#Cc1ccn2c(-c3ccccc3)c(-c3ccccc3)c(C(O)c3ccc(Cl)cc3)c2c1` (stereo unspecified) has an IC50 [2] of 23 µM, an inhibition at 6.25 µg/mL [4] of 95% and an MIC [5] of 6.25 µg/mL (≈ 14.4 µM).

For `c1csc(-c2cc3ccccn3c2)c1`, the Activity (Escherichia coli) was “Active”, the Activity (Streptomyces albus) was “Active” and the Activity (Aspergillus flavus) was “inactive”. For the same compound, the Activity (Candida albicans) was “Active”.

In the case of `COC(=O)c1cc(C(=O)c2cc3ccccc3o2)n2ccccc12`, the “inhibition (INH)” value (Mus musculus [8]) is reported as 36%.

In the case of `c1ccn2cc(-c3ccc(OCCCN4CCCCC4)cc3)cc2c1`, the Papp [9] is reported as 14.1 ×10⁻⁶ cm/s, the Kb (Histamine H3 receptor [10]) is reported as 3.16 nM and the Kb (Histamine H3 receptor [11]) is reported as 19.5 nM. It also gave an Activity (Albumin) of 50% and a half-life [12] of 10 min.

For `N#Cc1ccn2c(-c3ccccc3)c(-c3ccccc3)c(C(O)C3CCCCC3)c2c1` (stereo unspecified), the IC50 [2] was 23 µM and the MIC [5] was > 6.25 µg/mL.

In the case of `N#Cc1cc(C(=O)c2cc3ccccc3o2)n2ccccc12`, the “inhibition (INH)” value (Mus musculus [13]) is reported as 24%.

With `CCOC(=O)c1c(-c2ccc(F)cc2)cc2c3ccccc3ccn12` the MIC [1] was 1 µM (≈ 0.333 µg/mL), the Ratio [14] was 7.6 and the Ratio [15] was 4.7.

With `CC(C)Cc1ccc(C(C)C(=O)O)cc1` (stereo unspecified) [IBUPROFEN] the “inhibition (INH)” value (Mus musculus [13]) was 62% and the “inhibition (INH)” value (Mus musculus [8]) was 59%.

For `CC1=CC=CC2[C@@H]3C(=O)N(c4ccccc4)C(=O)[C@@H]3C(C(=O)c3cccs3)N12` (stereo partly specified), the Activity (Escherichia coli) was “Active”, the Activity (Streptomyces albus) was “Active” and the Activity (Aspergillus flavus) was “Active”. For the same compound, the Activity (Candida albicans) was “Active”.

`Cc1c(-c2ccc(OCCCN3CCCCC3)cc2)cc2ccccn12` showed a half-life [12] of 54 min.

In the case of `Cc1ccc(C(O)c2c(-c3ccccc3)c(-c3ccccc3)n3ccc(C#N)cc23)cc1` (stereo unspecified), the IC50 [2] is reported as 22 µM, the inhibition at 6.25 µg/mL [4] is reported as 90% and the MIC [5] is reported as 6.25 µg/mL (≈ 15.1 µM).

With `CCc1c(-c2ccc(O)cc2)c2ccc3cccc1n32` the IC50 (Estrogen receptor) was 9.5 nM.

Compound `CCOC(=O)c1c(-c2ccc(Cl)cc2)cc2c3ccccc3ccn12` has an MIC [1] of 2.3 µM (≈ 0.805 µg/mL).

`COC(=O)C1=C2CCC(C(=O)N[C@@H](CCc3c[nH]c4ccccc34)C(=O)N(C)Cc3ccccc3)N2C(=O)C(NC(C)=O)C1` (stereo partly specified) showed a Kb (Substance-P receptor) of 126 nM and a Kb (Substance-K receptor) of 631 nM.
